Measurements reported in BindingDB's records for doi:10.1021/jm801583j (Bristol-Myers Squibb, 2009).

Molecular target: T1, Androgen receptor (Homo sapiens, UniProt P10275)
T1 sequence (P10275 whole entry): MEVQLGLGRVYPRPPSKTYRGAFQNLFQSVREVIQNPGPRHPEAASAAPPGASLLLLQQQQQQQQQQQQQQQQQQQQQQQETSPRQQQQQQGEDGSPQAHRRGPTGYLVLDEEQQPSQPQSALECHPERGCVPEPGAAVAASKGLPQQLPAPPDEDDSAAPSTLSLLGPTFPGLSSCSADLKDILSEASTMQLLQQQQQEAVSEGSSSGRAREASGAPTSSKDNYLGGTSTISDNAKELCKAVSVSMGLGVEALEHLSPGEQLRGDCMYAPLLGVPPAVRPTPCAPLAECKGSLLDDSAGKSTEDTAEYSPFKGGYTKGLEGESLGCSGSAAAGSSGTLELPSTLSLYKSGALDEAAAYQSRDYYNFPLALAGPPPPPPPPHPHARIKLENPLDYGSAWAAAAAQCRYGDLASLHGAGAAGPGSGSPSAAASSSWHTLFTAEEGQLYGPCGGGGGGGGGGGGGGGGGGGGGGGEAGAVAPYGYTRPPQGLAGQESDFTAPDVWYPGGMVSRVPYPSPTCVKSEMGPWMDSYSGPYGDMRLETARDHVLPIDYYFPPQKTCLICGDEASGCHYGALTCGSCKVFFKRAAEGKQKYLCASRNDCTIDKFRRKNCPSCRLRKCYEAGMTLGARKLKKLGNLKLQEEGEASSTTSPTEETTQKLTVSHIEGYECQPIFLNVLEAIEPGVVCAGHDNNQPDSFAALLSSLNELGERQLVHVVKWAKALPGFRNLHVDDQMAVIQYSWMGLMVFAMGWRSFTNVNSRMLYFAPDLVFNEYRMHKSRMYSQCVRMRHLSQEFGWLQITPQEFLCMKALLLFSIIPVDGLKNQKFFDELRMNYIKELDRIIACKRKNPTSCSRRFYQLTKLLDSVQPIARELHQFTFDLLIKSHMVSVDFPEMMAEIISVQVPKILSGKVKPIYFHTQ
Test: Receptor Binding Assay (Ki) and Transactivation Assay (EC50)
Details: pH 7.6; 22 °C
Experimental: Binding assays were conducted by incubating test compound at various concentrations with [3H]DHT with human cancer epithelial breast cell lines MDAMB-45. IC50 value was obtained from dose-response displacement curves. The inhibition constant (Ki) was calculated from IC50 value by the Cheng and Prusoff equation. EC50 value was obtained from functional transactivation assay, which was conducted to assess the potency and efficacy of agonist/antagonist in stably transfected mouse myoblast C2C12 cell line utilizing a luciferase reporter.

Row | Structure (SMILES) | EC50 [nM] | Ki [nM]
1 | Cc1c(N2/C(=N/C#N)N3CC[C@H](O)[C@H]3[C@@H]2C)ccc(C#N)c1Cl [cyanoguanidine, 15] | 1110 | 17
2 | Cc1c(/N=C2\O[C@H](C(C)C)[C@@H]3[C@H](O)CCN23)ccc(C#N)c1Cl [oxazolidin-2-imine, 6g] | 3.7 | 0.7
